# What was measured:
# [1] = Quantification of NP uptake in organs by VSM magnetometry; type: in vivo, NOD and B6 mice
# Method: For mechanistic studies, MRI and histological studies, 3 B6 mice/time points aged 10 and 12 weeks were used as control. 3 Female NOD mice/time points were used as pre-diabetic mice between 10 and 12 weeks of age. NPs were administrated intravenously (i.v.) as a bolus of 200 μmolFe/kg diluted in 200 μL of vehicle (NaCl 0.9%/Glucose 5%).
# Quantification of NP uptake in organs by VSM: Pancreas, lung, liver, spleen, kidneys and PLN were collected 1 h, 5 h, 24 h, 48 h and 72 h after intravenous injection of USPIO-PEG-ITE-P3UMPI (200 μmolFe/kg) or vehicle (NaCl 0.9%/Glucose 5%) in NOD and B6 mice. Collected organs were frozen in liquid nitrogen, lyophilized and ground to a powder using a mortar and pestle. Sample magnetism was analyzed by a VSM (VSM Quantum Design, Versalab) at room temperature. Amount of iron per organ was calculated from the NP magnetization at saturation (expressed in emu/g of iron).
# [2] = biological target: T1, aryl hydrocarbon receptor (AhR) (Mus musculus, UniProt P30561); assay: ITE biological activity: AhRR gene expression in BMDCs by qPCR; type: cell-based; conditions: 24 h, 14 μmol·L^−1 ITE or equivalent amount as NPs
# T1 sequence (P30561 10-848): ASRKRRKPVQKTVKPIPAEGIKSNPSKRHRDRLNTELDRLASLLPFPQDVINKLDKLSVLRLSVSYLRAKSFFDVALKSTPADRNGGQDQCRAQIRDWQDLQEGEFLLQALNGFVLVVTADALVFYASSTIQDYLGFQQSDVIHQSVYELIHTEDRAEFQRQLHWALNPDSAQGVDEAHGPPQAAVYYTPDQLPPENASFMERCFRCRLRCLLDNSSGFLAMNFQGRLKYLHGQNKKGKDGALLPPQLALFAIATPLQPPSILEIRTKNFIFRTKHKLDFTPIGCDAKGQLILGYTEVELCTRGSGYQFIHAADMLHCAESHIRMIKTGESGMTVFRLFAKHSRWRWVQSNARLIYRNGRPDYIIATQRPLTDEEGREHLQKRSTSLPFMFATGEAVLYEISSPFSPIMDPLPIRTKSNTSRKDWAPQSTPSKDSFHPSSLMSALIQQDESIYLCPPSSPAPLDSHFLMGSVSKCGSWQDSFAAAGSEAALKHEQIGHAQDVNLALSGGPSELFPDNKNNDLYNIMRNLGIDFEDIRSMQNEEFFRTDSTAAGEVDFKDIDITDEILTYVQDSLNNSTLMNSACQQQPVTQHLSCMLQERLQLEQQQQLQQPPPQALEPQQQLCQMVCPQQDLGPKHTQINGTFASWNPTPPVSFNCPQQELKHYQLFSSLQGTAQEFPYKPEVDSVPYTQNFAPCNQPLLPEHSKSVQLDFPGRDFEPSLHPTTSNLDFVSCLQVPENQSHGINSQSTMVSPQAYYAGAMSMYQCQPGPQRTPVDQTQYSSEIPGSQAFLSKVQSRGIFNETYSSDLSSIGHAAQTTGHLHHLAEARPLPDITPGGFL
# Method: Mouse bone marrow dendritic cells: BMDCs were prepared from progenitor cells isolated from the femurs and tibias of female mice between 8 and 10 wk of age, as previously described in Inaba et al. (“Generation of large numbers of dendritic cells from mouse bone marrow cultures supplemented with granulocyte/macrophage colony-stimulating factor”; J Exp Med 1992, 176 (6), 1693-702). Bone marrow cells were plated on 15 cm petri dishes cell culture for a final volume of 20 mL per plate in Iscove's Modified Dulbecco's Medium (IMDM) containing 10% FCS, penicillin/streptomycin 100 μg/ml, L-Glutamine 2 mmol.L^−1 and β-mercapthoethanol 50 μmol.L^−1, and supplemented with 10 ng/ml murine GM-CSF (R&D Systems) for 8 days. Half of the medium was replaced on day 4 of culture.
# ITE biological activity. On day 7 of BMDC culture, cells were incubated 24 h with 14 μmol·L^−1 ITE in 0.2% DMSO and equivalent amount of ITE as USPIO-PEG-ITE NPs in water. On day 8, total RNA was prepared by the RNAspin mini kit (GE Healthcare). cDNA was obtained using the RevertAid RT Reverse Transcription Kit (Thermo Scientific) with 1 μg of total RNA. Quantitative PCR (qPCR) was performed with the SYBR Green method using Takyon ROX qPCR SYBR MasterMix blue dTTP (Eurogentec).
# Solubility = type: physicochemical
smiles,measurement,setting,value
"COC(=O)c1csc(C(=O)c2c[nH]c3ccccc23)n1 [ITE, 2-(1′H-indole-3′-carbonyl)-thiazole-4-carboxylic acid methyl ester]",Estimation of drug dose released in pancreas: ITE,"[1]; B6 mice, 1 H after iv injection of USPIO-PEG-ITE-P3UmPI, considering no drug release before pancreas targeting",0.39 mmol
same,Estimation of drug dose released in pancreas: ITE,"[1]; B6 mice, 5 H after iv injection",0.99 mmol
same,Estimation of drug dose released in pancreas: ITE,"[1]; B6 mice, 24 H after iv injection",0 mmol
same,Estimation of drug dose released in pancreas: ITE,"[1]; B6 mice, 48 H after iv injection",0.15 mmol
same,Estimation of drug dose released in pancreas: ITE,"[1]; B6 mice, 72 H after iv injection",0.33 mmol
same,Estimation of drug dose released in pancreas: ITE,"[1]; NOD mice, 1 H after iv injection",1.54 mmol
same,Estimation of drug dose released in pancreas: ITE,"[1]; NOD mice, 5 H after iv injection",2.98 mmol
same,Estimation of drug dose released in pancreas: ITE,"[1]; NOD mice, 24 H after iv injection",0.37 mmol
same,Estimation of drug dose released in pancreas: ITE,"[1]; NOD mice, 48 H after iv injection",1.78 mmol
same,Estimation of drug dose released in pancreas: ITE,"[1]; NOD mice, 72 H after iv injection",0.91 mmol
same,AhRR expression,[2],induced
same,Solubility,Solubility,soluble only in DMSO and ethanol
